This is an account of results in US12275766B2, “Neoantigen peptide mimics” (Janssen Biotech, Inc., priority 2020, dated 2025).

The test system of assay [1] is CD8+ T cells from HLA-02:01+ PBMCs. The assay can be described thus: Frequency of double positive T cells for mimic and mutant tetramers (flow cytometry). Format: cell-based, human. As for the experimental part: Preparation of PBMCs: Vials of HLA-02:01^+ PBMCs frozen from donors (Hemacare) were removed from LN2 storage and rapidly thawed in a 37° C. water bath. The cells were transferred to a 50 mL conical tube containing 40 mL warm media (RPMI 1640 medium+10% fetal bovine serum (FBS)+1% Penicillin streptomycin solution), spun at 1300 rpm for 5 minutes at room temperature. The cell pellet was resuspended in 2 mL EASYSEP™ buffer and cells were counted using trypan blue live dead marker using a haemocytometer.
Enrichment of CD8+ T cells: To enrich the CD8+ T cells from the PBMCs, EASYSEP™ Human CD8+ T Cell Isolation Kit was used as per the manufacturer's instructions. Post enrichment, the cell pellet was resuspended in Dulbecco's phosphate-buffered saline (DPBS) and cells were counted as above. To determine the viability, LIVE/DEAD™ Fixable Violet Dead Cell Stain Kit was used at 0.5 μL/1×10^6/100 μL cell suspension and incubated at room temperature for 20 minutes. At the end of incubation period, FACS buffer (DPBS+2% FBS) was added and the cells were spun at 1300 rpm for 5 minutes at room temperature. The cell pellet was resuspended in FACS buffer, trypan blue was added, and the cell count was determined using a haemocytometer. The cell density was maintained at 1×10^6/50 μL FACS buffer. 3 μL Fc block was added per 1×10^6 cells and incubated for 10 minutes at room temperature in the dark. At the end of the incubation, mimic tetramer and the corresponding mutant tetramers were added at 3 μL tetramer/1×10^6 cells.
For frequency determination, 2×10^6 cells were used for test samples and 1×10^6 cells were used for control samples where negative tetramers were added in place of the mimic or mutant tetramers. A sample where no tetramers were added was kept as unstained control. The samples were incubated at room temperature for 30 minutes in dark. At the end of incubation period, CD8 antibody was added at 2 μL/1×10^6 cells and the samples were incubated for another 30 minutes at room temperature in dark. At the end of incubation, FACS buffer was added to the samples and the samples were spun at 1300 rpm for 5 minutes. The pellet was resuspended in 5 mL FACS buffer and the cells were spun at 1300 rpm for 5 minutes. The pellet was resuspended in 200 μL FACS buffer and events were acquired using the Novocyte flow cytometer.
The cells were acquired on the Novocyte flow cytometer and gated on forward scatter height (FSC-H) versus side scatter height (SSC-H). The cells high on FSC-H versus SSC-H were gated as lymphocytes. From the lymphocytes, live cells were gated by selecting the pacific blue negative cells on an FSC-H versus Pacific Blue-H plot. From the live cells, single cells were gated on FSC-H versus forward scatter area (FSC-A). CD8+ T cells were gated from the singlets as Alexa Fluor 700 positive cells. For gating phycoerythrin (PE) conjugated tetramer positive cells, the CD8^+ cells were gated on Alexa Fluor 700-H versus PE-H and the double positive cells were considered as CD8+ tetramer+. For gating allophycocyanin (APC) conjugated tetramer positive cells, the CD8^+ cells were gated on Alexa Fluor 700-H versus APC-H and the double positive cells were considered as CD8+tetramer+. All gates were set using the negative tetramers to eliminate non-specific binding. The dual positive cells that were mimic and mutant tetramer positive cells were gated by plotting PE-H versus APC-H within the CD8^+ cells.
(In flow cytometry, cells or beads pass a laser one at a time.)

The target of assay [2] is HLA-A*02:01 (Homo sapiens, UniProt P04439, D140Y/D185E/D98H/E176V/E277Q/G131W/G231S/I119V/I121R/I166T/I218V/L300P/L318F/N151K/N90K/P208A/P217A/Q86G/Q94H/R138H/R169H/T345S). In kind it is binding. As to conditions: for Average %: average of Exch I and Exch II, relative to exchange control peptide Pos (100%); for Exch I (%): first UV-induced peptide exchange; for Exch I (%) / Exch II (%): absorbance relative to exchange control peptide Pos (100%); for Exch II (%): second UV-induced peptide exchange.

Setting [3] is: donor 17042765, frequency of double positive T cells at least 2-fold higher than the background (negative tetramers).
The mark [4] stands for this setting: donor 19054445, frequency of double positive T cells at least 2-fold higher than the background (negative tetramers).

Ends that are not written are not given here.

Consider “Mutant (SEQ ID NO: 23) Mimic (SEQ ID NO: 78): pair of tetramers loaded with mutant VVPCEPPEV (PE) and mimic VLPCEPPEV (APC) (not fully specified; cysteine pairing not given here)”, for which the “Frequency (%) of double positive T cells within CD8+ compartment of donors” value (“Frequency (%)” below) stood at 0.153% in assay [1] (Donor ID 20001476); 0.000% in assay [1] (Donor ID 20001487); 0.006% in assay [1] (Donor ID 20061357); 0.000% in assay [1] (Donor ID 20061599); 0.000% in assay [1] (Donor ID 20061661); 0.000% in assay [1] (Donor ID 20062224). Moreover, the “Frequency (%)” value in assay [1] (Donor ID 20062384) is 0.023%.
As to “Mutant (SEQ ID NO: 16) Mimic (SEQ ID NO: 64): pair of tetramers loaded with mutant ALNNMFCQL (PE) and mimic ALNNMFCQV (APC) (not fully specified; cysteine pairing not given here)”, the “Frequency (%)” value in assay [1] (Donor ID 20001476) is 0.021%; in assay [1] (Donor ID 20001487), 0.000%; in assay [1] (Donor ID 20061357), 0.002%; in assay [1] (Donor ID 20061599), 0.000%; in assay [1] (Donor ID 20061661), 0.000%; in assay [1] (Donor ID 20062224), 0.016%. Also, the “Frequency (%)” value in assay [1] (Donor ID 20062384) amounted to 0.000%.
Regarding 6 (LVVVGACGV) [compound 6], in assay [2], the Average % is on record as 7.0%, the “Exch I (%)” value stood at 6.5% and the “Exch II (%)” value came out at 7.5%.
In the case of “Mutant (SEQ ID NO: 2) Mimic (SEQ ID NO: 29): pair of tetramers loaded with mutant YLDCGIHSG (APC) and mimic YLDCGIHSV (PE) (not fully specified; cysteine pairing not given here)”, the “Frequency (%)” value in assay [1] (Donor ID 20001476) came out at 0.075%; in assay [1] (Donor ID 20001487), 0.000%; in assay [1] (Donor ID 20061357), 0.095%; in assay [1] (Donor ID 20061599), 0.000%; in assay [1] (Donor ID 20061661), 0.000%; in assay [1] (Donor ID 20062224) it was 0.000%. The “Frequency (%)” value in assay [1] (Donor ID 20062384) is on record as 0.000%.
For 7 (LVVVGAVGV) [compound 7], in assay [2], the Average % came to 4.5%, the “Exch I (%)” value was determined as 4.3% and the “Exch II (%)” value stood at 4.6%.
Consider “Mutant (SEQ ID NO: 9) Mimic (SEQ ID NO: 45): pair of tetramers loaded with mutant ILNREIDFA (PE) and mimic ILNREIDFV (APC) (not fully specified)”, for which the “Frequency (%)” value is 0.05% in assay [1] (Donor ID 17042380); 0.14% in assay [1] (Donor ID 17042765); 0.01% in assay [1] (Donor ID 18047563); 0.1% in assay [1] (Donor ID 19053796); 0.03% in assay [1] (Donor ID 19054141); 0.01% in assay [1] (Donor ID 19054183). Besides, the “Frequency (%)” value stood at 0.24% in assay [1] (Donor ID 19054445) and 0.01% in assay [1] (Donor ID 19054456). Besides, the “T-cells positive for mutant-mimic pair” value in assay [1] (setting [3]), in assay [1] (donor 19053796) and in assay [1] (setting [4]) was “positive” each time.
“Mutant (SEQ ID NO: 3) Mimic (SEQ ID NO: 32): pair of tetramers loaded with mutant YLDSGIHFG (APC) and mimic YLDSGIHFV (PE) (not fully specified)”: the “Frequency (%)” value in assay [1] (Donor ID 20001476) was found to be 0.051%; in assay [1] (Donor ID 20001487), 0.000%; in assay [1] (Donor ID 20061357), 0.007%; in assay [1] (Donor ID 20061599), 0.000%; in assay [1] (Donor ID 20061661) it was 0.000%; in assay [1] (Donor ID 20062224), 0.000%. Besides, the “Frequency (%)” value in assay [1] (Donor ID 20062384) came out at 0.023%.
In the case of “Mutant (SEQ ID NO: 13) Mimic (SEQ ID NO: 59): pair of tetramers loaded with mutant KTYPVQLWV (APC) and mimic KMYPVQLWL (PE) (not fully specified)”, the “Frequency (%)” value in assay [1] (Donor ID 17042380) is on record as 0.04%; in assay [1] (Donor ID 17042765), 0.13%; in assay [1] (Donor ID 18047563), 0.01%; in assay [1] (Donor ID 19053796) it was 0.06%; in assay [1] (Donor ID 19054141) it was 0.02%; in assay [1] (Donor ID 19054183) it was 0.01%. Moreover, the “Frequency (%)” value in assay [1] (Donor ID 19054445) came to 0.38%; in assay [1] (Donor ID 19054456) it was 0%. Also, the “T-cells positive for mutant-mimic pair” value in assay [1] (setting [3]), in assay [1] (donor 19053796) and in assay [1] (setting [4]) was “positive” throughout.
For “Mutant (SEQ ID NO: 22) Mimic (SEQ ID NO: 75): pair of tetramers loaded with mutant LLGRNSFEM (PE) and mimic LLGRNSFEL (APC) (not fully specified)”, the “Frequency (%)” value was determined as 0.000% in assay [1] (Donor ID 20001476); 0.000% in assay [1] (Donor ID 20001487); 0.004% in assay [1] (Donor ID 20061357); 0.000% in assay [1] (Donor ID 20061599); 0.000% in assay [1] (Donor ID 20061661); 0.015% in assay [1] (Donor ID 20062224). Also, the “Frequency (%)” value in assay [1] (Donor ID 20062384) is recorded as 0.000%.
As to 99 (NLVPMVATL) [compound 99], in assay [2], the Average % is reported as 23.6%, the “Exch I (%)” value worked out at 26.8% and the “Exch II (%)” value amounted to 20.4%.
For the substance “Mutant (SEQ ID NO: 18) Mimic (SEQ ID NO 68): pair of tetramers loaded with mutant QLWVDSTPL (APC) and mimic QLWVDSTPV (PE) (not fully specified)”, the “Frequency (%)” value is recorded as 0.01% in assay [1] (Donor ID 17042380); 0% in assay [1] (Donor ID 17042765); 0% in assay [1] (Donor ID 18047563); 0% in assay [1] (Donor ID 19053796); 0% in assay [1] (Donor ID 19054141); 0% in assay [1] (Donor ID 19054183). Besides, the “Frequency (%)” value is 0.01% in assay [1] (Donor ID 19054445) and 0% in assay [1] (Donor ID 19054456). Besides, the “T-cells positive for mutant-mimic pair” value in assay [1] (donor 19053796) is listed as “positive”.
